Tests used:
HTT protein = HTT protein electrochemiluminescence (ECL) assay in HD patient fibroblasts, 96 h; format: cell-based, human; conditions: for HTT protein level: fibroblasts derived from HD patients, 96 h
Procedure: Human fibroblasts derived from a homozygous patient with HD (GM4857) were cultured for 96 hours in the presence of test compounds (in 0.5% DMSO) or controls at 37° C. in a humidified 5% CO2 atmosphere. After 96 hours, cells were lysed and frozen. HTT protein levels were measured in lysates as described below. Compounds that decreased HTT protein levels relative to DMSO control were further tested in a dose response assay.
For analysis in the electrochemiluminescence (ECL) assays, test compounds were serially diluted 3-fold in 100% DMSO (Sigma) to generate a 7-point concentration curve. A solution of test compound (500 nL, 200× in DMSO) was added to each test well with Acoustic Transfer System (EDC Biosystems); final concentration of DMSO was 0.5%. Fibroblasts were seeded in 96-well flat-bottomed plates (Thermo Fisher) at 4×10^3 cells/well in 100 μl of culture medium containing the test compound or DMSO vehicle control and incubated for 96 hours (37° C., 5% CO2, 100% relative humidity). After removal of the supernatant, cells were lysed in 50 μL of 1×LB11 extraction buffer (50 mM Tris (pH 7.4), 300 mM NaCl, 10% [w/v] glycerol, 3 mM EDTA, 1 mM MgCl2, 20 mM glycerophosphate, 25 mM NaF, 1% Triton X-100), containing a Complete™ protease inhibitor cocktail (Roche Diagnostics) with shaking at 4° C. for 30 minutes; the plates were then stored at −20° C.
Meso Scale Discovery® 96-well plates (MSD®) were coated overnight at 4° C. with primary antibodies in phosphate-buffered saline (PBS; 30 μl/well). The plates were washed three times with 0.05% Tween-20 in 1×PBS (PBS-T; 200 μl/well) then blocked (100 μl/well; 5% bovine serum albumin [BSA] in PBS-T) for 5-6 hours at room temperature (RT) with shaking. Plates were then washed three times with PBS-T. Cell lysates were transferred to the antibody coated plates (25 μl/well) and incubated with shaking overnight at 4° C. After removal of the lysates, the plates were washed three times with PBS-T, and 25 μl of detection antibody in 1% BSA, PBS-T was added to each well and incubated with shaking for 1 hour at room temperature. After three washes with PBS-T, 25 μl of Sulfo-Tag secondary antibody (MSD®; 0.25 μg/ml in 1% BSA, PBS-T) was added to each well and incubated with shaking for 1 hour at RT. After washing three times with PBS-T, 150 μl of read buffer T with surfactant (MSD®) was added to each empty well and the plate was imaged on the SI 6000 imager (MSD®) according to manufacturers' instructions for 96-well plates. Primary capture antibodies included: anti-polyglutamine-expanded HTT mouse monoclonal antibody (mAb) clone MW1 (1 μg/mL; Developmental Studies Hybridoma Bank); anti-HTT MAB2166 mAb (1 μg/mL; Millipore); anti-human KRAS rabbit polyclonal antibody (1 μg/mL; Thermo Fisher Scientific). Detection antibodies included: Huntingtin (D7F7) XP® Rabbit mAb (0.25 μg/ml; Cell Signalling Technology®); anti-hKRAS mouse mAb (0.25 μg/ml; LSBIO).

HTT mRNA = experiment: RT-qPCR quantification of HTT mRNA in HD patient fibroblasts, 24 h; format: cell-based, human; conditions: fibroblasts derived from HD patients
Procedure: Test compounds were serially diluted 3-fold in 100% DMSO to generate a 7-point concentration curve. A solution of test compound (500 nl, 200× in DMSO) was added to each test well with Acoustic Transfer System. Fibroblasts were seeded in 96-well flat-bottomed plates (Thermo Fisher Scientific) at 1×10^4 cells/well in 100 μl of culture medium containing the test compound or DMSO vehicle control and incubated for 24 hours (37° C., 5% CO2, 100% relative humidity). After removal of the supernatant, cells were lysed in RNA lysis buffer (1M Tris-HCL pH 7.4, 5M NaCl, 10% IGEPAL®CA-630; 50 μL/well) for 1 minute at RT, before 50 μL of chilled nuclease free water was added to each well; plates were then transferred immediately onto ice before storing at −80° C. overnight.
Cell lysates were assayed by quantitative reverse transcriptase polymerase chain reaction (RT-qPCR) to measure mRNA levels of HTT and glyceraldehyde 3-phosphate dehydrogenase (GAPDH) in the presence or absence of the test compound.
A reverse transcriptase quantitative polymerase chain reaction (RT-qPCR) reaction mixture of primers and probe sets for HTT and GAPDH was prepared according to TABLE III. […]

Compound | HTT protein level (HTT protein) | wild type and mutant HTT protein expression (HTT protein; fibroblasts, 96-hour treatment) | amount of HTT mRNA (HTT mRNA)
CC1(C)CC(Oc2ccc(-c3ccc(-c4ccnc(O)c4)cc3O)nn2)CC(C)(C)N1 [HTT-C1] | dose-dependent decrease | lowered HTT protein expression from both alleles | dose-dependent decrease
CCN1CCC(c2cc(C)c3nc(-c4ccc5nn(C)cc5c4)cc(=O)n3c2)CC1 [HTT-D1] | dose-dependent decrease |  | dose-dependent decrease

— patent US20220162610A1, “NOVEL RNA TRANSCRIPT” (PTC Therapeutics, Inc., priority 2020, published 2022)
